The subject of series [1] is SUDHL5. Nature of the series: Antiproliferation assay 7, SUDHL5. The series is classed as cell-based. The note with it: SUDHL5 cells, CellTiter-Glo, read-out: Antiproli SUDHL5 IC50 (median). The essentials: (§1)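 Proliferation was read by CellTiter-Glo luminescence after 72 hours of compound treatment at 37° C. The read was referenced to a parallel plate measured at time zero.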

Series [2] relates to HMC-1-8. Nature of the series: Antiproliferation assay 7, HMC-1-8. The series is classed as cell-based. As to conditions: HMC-1-8 cells, CellTiter-Glo, read-out: Antiproli HMC-1-8 IC50 median. The essentials: as §1
(Cellular ATP, detected with luciferase, serves as a proxy for viable cell number.)

The test system of series [3] is AMO-1. Description: Antiproliferation assay 7, AMO-1. As to conditions: AMO-1 cells, CellTiter-Glo, read-out: Antiproli AMO-1 IC50 median. The series is classed as cell-based. The method in brief: as §1
In series [4] the target is BCL-2 (Homo sapiens (Human), UniProt P10415). Description: Protein-protein interaction assay BCL-2/Bad BH3 peptide (BCL-2 Assay, TR-FRET). The class given is binding. The note with it: read-out: BCL-2 Assay IC50 (median). How it is done: The dose-dependent inhibition by the compounds described in this invention of the interaction between BCL-2 and the BH3 domain of Bad (both human) was determined using a steady state binding competition assay with time-resolved fluorescence energy transfer (TR-FRET) readout.
BCL-2, sequence (P10415 other isoform, or with tags, fused parts or gaps): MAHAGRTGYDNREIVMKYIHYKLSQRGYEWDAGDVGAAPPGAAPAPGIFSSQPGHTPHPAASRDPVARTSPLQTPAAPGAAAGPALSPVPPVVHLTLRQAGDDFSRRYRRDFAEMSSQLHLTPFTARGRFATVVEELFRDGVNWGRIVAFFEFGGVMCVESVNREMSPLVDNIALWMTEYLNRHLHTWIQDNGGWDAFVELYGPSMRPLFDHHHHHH
For that, 100-fold concentrated DMSO solutions were prepared by serial dilutions (1:3.4) of a 2 mM stock solution in a clear, 384-well microtiter plate (Greiner Bio-One, Frickenhausen, Germany). From there, 50 nl were transferred in a dark test plate (Greiner Bio-One, Frickenhausen, Germany). […] This was followed by a 10-minute incubation step at 22° C. for pre-equilibration of the putative complex between His-BCL-2 and the compounds.
The mixture was incubated in the dark for one hour at 22° C. and then overnight at 4° C.
The resulting data (ratio) were normalized, taking 0% inhibition as the mean value of control measurements (usually 32 data points) where all reagents were included. In this case 50 nl DMSO were used instead of compounds. […] IC50 values were determined by regression analysis based on a 4 parameter equation (minimum, maximum, IC50, Hill; Y=Max+(Min−Max)/(1+(X/IC50)^Hill) using the Screener Software (Genedata).
Background: In TR-FRET formats the signal depends on donor and acceptor labels being close together.

For series [5], the system named is SUDHL10. Description: Induction of caspase-3/7 activity (Assay 4), SUDHL10. The series is classed as cell-based. As to conditions: SUDHL10 cells. The method in brief: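 Luminescent Caspase-Glo 3/7 read-out after a 3 h, 37 °C compound exposure of the DLBCL line SUDHL10. Values are background-corrected using medium-only wells.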
Series [6] has as its system SUDHL5. Nature of the series: Induction of cytotoxicity (Assay 6), SUDHL5.
[7] abbreviates: 3 hours, Caspase-Glo 3/7, read-out: Caspase SUDHL10 EC50 (median).
Where [8] appears, read: read-out: Cytotox SUDHL5 IC50 (median), SUDHL5 cells, 5 hours, CellTiter-Glo.

Counter-ions that a name gives are not always drawn. Like-named read-outs stand apart in the source and are kept apart here.

As for `Cc1c2c(nn1C)N(C)CCCCCn1c(C(=O)O)c(CCCOc3cccc4cc(F)ccc34)c3ccc(Cl)c-2c31` (racemic) [Example 74, (rac)-4-chloro-7-{3-[(6-fluoronaphthalen-1-yl)oxy]propyl}-2,3,15-trimethyl-10,11,12,13,14,15-hexahydro-2H-pyrazolo[4′,3′:4,5][1,6]diazacycloundecino[3,2,1-hi]indole-8-carboxylic acid], the IC50 (commonly the point on the concentration scale where inhibition reaches its midpoint) in series [1] (72 hours) was 810 nM; in series [2] (72 hours) it was 5400 nM; in series [3] (72 hours) it was 1100 nM; in series [4] it was 19000 nM; in series [6] (setting [8]) it was 1000 nM. The EC50 (commonly the concentration giving half of the maximal effect) in series [5] (setting [7]) stood at 1000 nM.

Turning to `CCc1c2c(nn1C)N(C)CCCCCn1c(C(=O)O)c(CCCOc3cccc4cc(F)ccc34)c3ccc(Cl)c-2c31` (single isomer, unassigned; enantiomer 1) [Example 78, 4-chloro-3-ethyl-7-{3-[(6-fluoronaphthalen-1-yl)oxy]propyl}-2,15-dimethyl-10,11,12,13,14,15-hexahydro-2H-pyrazolo[4′,3′:4,5][1,6]diazacycloundecino[3,2,1-hi]indole-8-carboxylic acid-N-ethylethanamine Salt—Enantiomer 1], the IC50 is 2300 nM in series [1] (Homo sapiens, SU-DHL-5, 72 h); 2400 nM in series [2] (72 hours); 770 nM in series [3] (72 hours); over 20000 nM in series [4]; 310 nM in series [6] (setting [8]). Besides, the EC50 in series [5] (setting [7]) worked out at 320 nM.

For `Cc1c2c(nn1C)N(C)CCCCCn1c(C(=O)O)c(CCCOc3cccc4ccccc34)c3ccc(Cl)c-2c31` (racemic) [Example 71, (rac)-4-chloro-2,3,15-trimethyl-7-{3-[(naphthalen-1-yl)oxy]propyl}-10,11,12,13,14,15-hexahydro-2H-pyrazolo[4′,3′:4,5][1,6]diazacycloundecino[3,2,1-hi]indole-8-carboxylic acid], the IC50 was 2000 nM in series [1] (Homo sapiens, SU-DHL-5, 72 h); 22000 nM in series [2] (72 h); 5000 nM in series [3] (Homo sapiens, AMO1, 72 h); over 20000 nM in series [4]; 690 nM in series [6] (Homo sapiens, SU-DHL-5, 5 h, read-out: Cytotox SUDHL5 IC50 (median), SUDHL5 cells, 5 hours, CellTiter-Glo). Besides, in series [5] (Homo sapiens, SU-DHL10, 3 h, Caspase-Glo 3/7, read-out: Caspase SUDHL10 EC50 (median)), the EC50 came out at 1800 nM.

With `Cc1c2c(nn1C)N(C)CCCCCn1c(C(=O)O)c(CCCOc3cccc4cc(F)ccc34)c3ccc(Cl)c-2c31` [Example 75, (+)-4-chloro-7-{3-[(6-fluoronaphthalen-1-yl)oxy]propyl}-2,3,15-trimethyl-10,11,12,13,14,15-hexahydro-2H-pyrazolo[4′,3′:4,5][1,6]diazacycloundecino[3,2,1-hi]indole-8-carboxylic acid-N-ethylethanamine salt], the IC50 worked out at 520 nM in series [1] (72 hours); 3400 nM in series [2] (72 hours); 1100 nM in series [3] (72 hours); 19000 nM in series [4]; 380 nM in series [6] (setting [8]). The EC50 in series [5] (setting [7]) came to 740 nM.

These data come from patent US11447504B2, “Macrocyclic chlorine substituted indole derivatives” (Bayer Aktiengesellschaft, priority 2017, dated 2022).
